Test systems include COLO 205; UACC-257; HOP-62; SR; SNB-19; NCI-H226; SF-295; UACC-62; BT-549; SF-268; ACHN; SK-MEL-28; DU-145; A549; SW-620; LOX IMVI; SK-MEL-2; K562; EKVX; IGROV-1.
Common to all, as to test: DTP human tumour cell line panel, 48 h

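Grown in 96-well plates, cells were treated for 48 hours with each compound at five concentrations. Insufficient inhibition: endpoint recorded as highest concentration tested. At the GI50, growth is halved.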 Active and inactive are the calls of the source. Rule as the data show it: active = GI50 up to about 1.1 µM and inactive = higher. Square brackets hold non-standard residues; d marks the D form. Peptide text beside a SMILES is read from it. * marks the point of attachment. NMeV = CN[C@H](C(=O)O)C(C)C; X28 = COc1ccc(CN*)c(OC)c1; Octanoyl = CCCCCCCC(=O)*; dNMeA = CN[C@H](C)C(=O)O

Usually GI50 stands for the concentration at which growth is held to half of that of the control. Consider `C=CC(C)(C)n1cc(C2=C(O)C(=O)C(c3cn(C(C)(C)C=C)c4ccccc34)=C(O)C2=O)c2ccccc21`, for which the GI50 in the assay with COLO 205 was 9.14 µM (inactive); with UACC-257, 2.9 µM (inactive); with HOP-62 it was 2.32 µM (inactive); with SR, 3.57 µM (inactive); in the assay with SNB-19, 2.41 µM (inactive); in the assay on NCI-H226, 2.67 µM (inactive). Besides, the GI50 is 2.85 µM (inactive) with SF-295; 1.98 µM (inactive) in the assay on UACC-62; 1.01 µM (active) in the assay on BT-549; 2.19 µM (inactive) in the assay on SF-268; 3.69 µM (inactive) with ACHN; 7.33 µM (inactive) in the assay on SK-MEL-28. The GI50 in the assay on DU-145 is 4.9 µM (inactive); with A549 it was 3.68 µM (inactive); with SW-620, 10.3 µM (inactive); with LOX IMVI, 3.13 µM (inactive); with SK-MEL-2, 1.73 µM (inactive); with K562, 5.62 µM (inactive). Besides, the GI50 was 2.93 µM (inactive) with EKVX and 2.7 µM (inactive) with IGROV-1.
Consider `Cc1cccc2c1CC(Cc1ccccc1C(=O)O)C2=O` (stereo not given), for which the GI50 in the assay with COLO 205, in the assay on UACC-257, in the assay with HOP-62, in the assay with SR, in the assay on SNB-19 and in the assay on NCI-H226 was > 100 µM (inactive) each time. The GI50 in the assay on SF-295, with UACC-62, in the assay with BT-549, with SF-268, in the assay on ACHN and with SK-MEL-28 was > 100 µM (inactive) throughout. Besides, the GI50 in the assay on DU-145, in the assay with A549, in the assay on SW-620, in the assay on LOX IMVI, in the assay on SK-MEL-2 and in the assay on K562 was > 100 µM (inactive) each time. In addition, the GI50 with EKVX and in the assay on IGROV-1 was > 100 µM (inactive) each time.
As for `O=C1CSC(c2ccc(Cl)cc2)N1c1ccc(-n2c(-c3ccccc3)nc3ccccc3c2=O)cc1` (stereo not given), the GI50 is > 100 µM (inactive) in the assay with COLO 205; > 100 µM (inactive) in the assay with UACC-257; > 100 µM (inactive) in the assay on HOP-62; 77.4 µM (inactive) with SR; > 100 µM (inactive) in the assay on SNB-19; > 100 µM (inactive) with NCI-H226. For the same compound, the GI50 with SF-295 was 46.1 µM (inactive); with UACC-62, 19.8 µM (inactive); with BT-549 it was > 100 µM (inactive); in the assay with SF-268, 88.1 µM (inactive); with ACHN, > 100 µM (inactive); with SK-MEL-28 it was > 100 µM (inactive). Besides, the GI50 in the assay with DU-145 was > 10 µM (inactive); in the assay with A549 it was 60.8 µM (inactive); with SW-620 it was 76 µM (inactive); in the assay on LOX IMVI, 50.8 µM (inactive); in the assay on SK-MEL-2, > 100 µM (inactive); in the assay on K562, 36.8 µM (inactive). The GI50 with EKVX is > 100 µM (inactive); in the assay with IGROV-1 it was 31.9 µM (inactive).
Consider `CC[C@@]1(O)C(=O)OCc2c1cc1n(c2=O)Cc2c-1nc1ccccc1c2/C=N\NC(=O)CN`, for which the GI50 with COLO 205 is 15.6 µM (inactive); in the assay on UACC-257 it was 2.49 µM (inactive); with HOP-62, 0.0533 µM (active); in the assay on SR, < 0.0125 µM (active); in the assay with SNB-19, < 0.0397 µM (active); with NCI-H226, 0.188 µM (active). Besides, the GI50 was 0.143 µM (active) with SF-295; 0.0333 µM (active) in the assay on UACC-62; 0.627 µM (active) with BT-549; 0.0387 µM (active) in the assay with SF-268; < 0.0197 µM (active) in the assay on ACHN; 23 µM (inactive) in the assay with SK-MEL-28. Besides, the 50% growth inhibitory concentration (GI50) was 0.0989 µM (active) with DU-145; 0.687 µM (active) with A549; 0.315 µM (active) in the assay with SW-620; 0.0989 µM (active) in the assay on LOX IMVI; 23.8 µM (inactive) in the assay with SK-MEL-2; 0.586 µM (active) in the assay with K562. For the same compound, the GI50 in the assay with EKVX was 12 µM (inactive); in the assay on IGROV-1, 2.59 µM (inactive).
In the case of `O=C1OC(c2ccccc2)=N/C1=C\c1ccc(Br)cc1`, the GI50 in the assay on COLO 205 was > 100 µM (inactive); with UACC-257 it was > 100 µM (inactive); with HOP-62 it was > 100 µM (inactive); in the assay on SR, 66.2 µM (inactive); with SNB-19, > 100 µM (inactive); in the assay with NCI-H226, > 100 µM (inactive). Besides, the GI50 in the assay on SF-295, in the assay with UACC-62, with BT-549, in the assay on SF-268, with ACHN and in the assay on SK-MEL-28 was > 100 µM (inactive) each time. The GI50 in the assay on DU-145, in the assay with A549, in the assay with SW-620, in the assay on LOX IMVI, in the assay with SK-MEL-2 and in the assay on K562 was > 100 µM (inactive) throughout. Further, the GI50 in the assay on EKVX and in the assay on IGROV-1 was > 100 µM (inactive) each time.
Regarding `CCCCCCCC(=O)N[C@H](C(=O)N[C@H](C(=O)N(C)[C@H](C(=O)N1CCC[C@H]1C(=O)N(C)[C@H](C)C(=O)NCc1ccc(OC)cc1OC)C(C)C)C(C)C)C(C)C` (Octanoyl-VV[NMeV]P[dNMeA]-X28), the GI50 was 5.74 µM (inactive) with COLO 205; 5.21 µM (inactive) in the assay with UACC-257; 20.4 µM (inactive) in the assay with HOP-62; 17.6 µM (inactive) with SR; 12.7 µM (inactive) in the assay on SNB-19; 4.95 µM (inactive) in the assay with NCI-H226. For the same compound, the GI50 is 7.96 µM (inactive) with SF-295; 7.21 µM (inactive) in the assay with UACC-62; 11.8 µM (inactive) with BT-549; 15.2 µM (inactive) in the assay on SF-268; 5.26 µM (inactive) with ACHN; 8.77 µM (inactive) in the assay on SK-MEL-28. For the same compound, the GI50 in the assay with DU-145 is 25.3 µM (inactive); in the assay with A549, 6.55 µM (inactive); with SW-620, 7.71 µM (inactive); with LOX IMVI it was 12.2 µM (inactive); in the assay with SK-MEL-2, 12.9 µM (inactive); with K562 it was 5.62 µM (inactive). In addition, the GI50 is 6.89 µM (inactive) in the assay on EKVX and 3.75 µM (inactive) in the assay with IGROV-1.
Consider `C=C1C(=O)O[C@H]2[C@H]1[C@H](OC(=O)/C(C)=C\C)C[C@]1(CO1)[C@@H]1[C@H](OC(C)=O)C=C(C)[C@]21O` [EUPAROTIN ACETATE], for which the GI50 in the assay on COLO 205 was 5.24 µM (inactive); with UACC-257, 17.7 µM (inactive); with HOP-62 it was 74 µM (inactive); with SR it was 3.64 µM (inactive); in the assay on SNB-19, > 58.5 µM (inactive); with NCI-H226, > 43 µM (inactive). For the same compound, the GI50 in the assay with SF-295 was > 83.9 µM (inactive); in the assay on UACC-62, 15.5 µM (inactive); in the assay with BT-549, 8.13 µM (inactive); in the assay with SF-268, 19.2 µM (inactive); in the assay with ACHN, 10.6 µM (inactive); in the assay with SK-MEL-28, 14.7 µM (inactive). Further, the GI50 in the assay with DU-145 was 15.4 µM (inactive); in the assay with A549 it was 69.2 µM (inactive); in the assay on SW-620, 8.85 µM (inactive); in the assay on LOX IMVI it was 12.7 µM (inactive); in the assay with SK-MEL-2, 25.5 µM (inactive); in the assay with K562, 0.383 µM (active). The GI50 with EKVX is 17 µM (inactive); in the assay on IGROV-1, 19.5 µM (inactive).
Take `C[C@]12CC[C@H]3[C@@H](CC[C@]4(O)C[C@@H](O)CC[C@]34C=O)[C@@]1(O)CC[C@@H]2C1=CC(=O)OC1` [STROPHANTHIDIN]: the GI50 with COLO 205 was 1.36 µM (inactive); with UACC-257, 0.766 µM (active); in the assay on HOP-62 it was 0.159 µM (active); in the assay with SR it was 0.386 µM (active); in the assay on SNB-19 it was 1.58 µM (inactive); with NCI-H226, 1.23 µM (inactive). Besides, the GI50 is 0.457 µM (active) with SF-295; 1.52 µM (inactive) in the assay with UACC-62; 0.355 µM (active) in the assay with BT-549; 0.397 µM (active) with SF-268; 0.142 µM (active) in the assay on ACHN; 1.73 µM (inactive) in the assay with SK-MEL-28. In addition, the concentration for 50% growth inhibition (GI50) in the assay on DU-145 is 0.284 µM (active); in the assay on A549, 0.159 µM (active); in the assay with SW-620, 0.528 µM (active); with LOX IMVI, 0.453 µM (active); in the assay with SK-MEL-2 it was 1.61 µM (inactive); in the assay on K562 it was 0.605 µM (active). Further, the GI50 in the assay with EKVX was 0.361 µM (active); in the assay on IGROV-1, 0.453 µM (active).

The record behind these values is ChEMBL document CHEMBL1201862, “PubChem BioAssay data set” (2004).
